Data set [1] concerns E-cad. Briefly: E-cad expression after MS-275 in gefitinib-resistant NSCLC cell lines. The following applies: 24 hours after treatment with 4 or 10 μM. In kind it is cell-based, human.
The conditions of data set [2]: in vivo; cited from earlier work.
In data set [3] the test system is E-cad. The following applies: lung cancer cell lines; cited from earlier work.
Data set [4] concerns NSCLC patients. The following applies: cited from earlier work; for response rate: single agent, phase I studies, chemotherapy resistant NSCLC patients.
The subject of data set [5] is H157 NSCLC cell line. Briefly: Apoptosis and cell death (cell cycle analysis). It is filed as cell-based, human. The following applies: 10 μM. As for the experimental part: (§1) The effect of gefitinib on inducing apoptosis and cell death in NSCLC cell lines sensitive and resistant to gefitinib was evaluated.
Data set [6] deals with H460 NSCLC cell line. Nature of the data set: Apoptosis and cell death (cell cycle analysis). It is filed as cell-based, human. To be noted: 10 μM. As for the experimental part: as §1
In data set [7] the test system is H520 NSCLC cell line. Briefly: Apoptosis and cell death (cell cycle analysis). In kind it is cell-based, human. To be noted: 10 μM. The protocol:
as §1

In data set [8] the test system is H358 NSCLC cell line. Briefly: Apoptosis and cell death (cell cycle analysis). In kind it is cell-based, human. To be noted: 10 μM. The protocol: (§2) The effect of gefitinib on inducing apoptosis and cell death in NSCLC cell lines sensitive and resistant to gefitinib was evaluated. […].
Data set [9] deals with Calu3 NSCLC cell line. Briefly: Apoptosis and cell death (cell cycle analysis). The following applies: 10 μM. In kind it is cell-based, human. As for the experimental part: as §2
Data set [10] deals with H322 NSCLC cell line. Nature of the data set: Apoptosis and cell death (cell cycle analysis). To be noted: 10 μM. It is filed as cell-based, human. As for the experimental part: as §2
Data set [11] has as its system A549 NSCLC cell line. Briefly: Apoptosis and cell death (cell cycle analysis). In kind it is cell-based, human. To be noted: 10 μM. The protocol: as §2
The test system of data set [12] is H3255 NSCLC cell line. Nature of the data set: Apoptosis and cell death (cell cycle analysis). In kind it is cell-based, human. To be noted: 10 μM. The protocol: as §2
The mark [13] stands for this setting: unselected gefitinib treated NSCLC patients.

Consider four compounds from patent US20080182865A1, “HISTONE DEACETYLASE INHIBITORS SENSITIZE CANCER CELLS TO EPIDERMAL GROWTH FACTOR INHIBITORS” (priority 2005, published 2008).

As usually defined, the half-life is the time needed for the level to fall by half in the phase considered.

Consider `Nc1ccccc1NC(=O)c1ccc(CNC(=O)OCc2cccnc2)cc1` [MS-275], for which the “upregulation of E-cad expression” value in [1] (H157), in data set [1] (H460) and in data set [1] (H520) was “Eight to twelve” each time. Also, the half-life in [2] is 100 h. Moreover, the “persistence of changes in histone acetylation following administration” value in data set [2] is listed as “several weeks”.
For `CC(/C=C/C(=O)NO)=C\[C@@H](C)C(=O)c1ccc(N(C)C)cc1` [TSA, trichostatin A], the “effect on E-cad” value in [3] was “activation of E-cad”.
For `C#Cc1cccc(Nc2ncnc3cc(OCCOC)c(OCCOC)cc23)c1` [erlotinib], the survival entry in data set [4] (second or third line therapy, National Cancer Institute Canada trial) is listed as “survival benefit”. The response rate entry in data set [4] was “about 10%”.
For the compound `COc1cc2ncnc(Nc3ccc(F)c(Cl)c3)c2cc1OCCCN1CCOCC1` [gefitinib], the “apoptosis and cell death” value in [5], in [6], in data set [7] and in data set [11] was “no apoptotic or necrotic effect” in each case. Also, the response rate entry in data set [4] was “about 10%”. For the same compound, the objective response result in [4] (setting [13]) was “up to 18%”. Besides, in data set [4] (setting [13]), the symptomatic improvement is reported as 40%. Further, the “increase in apoptosis and cell death” value was 2.3-3.4 fold in [8], 2.3-3.4 fold in data set [9], 2.3-3.4 fold in data set [10] and 35 fold in [12].
